{"source": "the supplement of paper PMC11208160"}
{"experiment": "recombinant barcode read abundance after kanamycin selection (control-corrected) (log10(CPM+1)); higher = more efficient recombination; sequences stand for … in AGTGCAGAGAAAATCGGCCAGTTTTCTCTGCCTGCAGTCCGCATGCCGT…AGATTTATGCAGCGGACTGCCTTTCTCCCAAAGTGATAAACCGGACAGTATCATGGACCGGTTTTCCCGGTAATCCGTATTTGCAAGGTTGGTTTCACT; site = the 11-nt target", "how_it_was_run": "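Oligos holding a promoter, target, barcode and the J23119-driven first 104 bases of the bridge RNA were Gibson-cloned into a vector that supplied the other 73 bp plus a T7-inducible recombinase. This library was co-electroporated with a donor plasmid into E. coli. Two replicates went on chloramphenicol/ampicillin LB agar (control) and two on chloramphenicol/ampicillin/kanamycin with 0.1 mM IPTG. Recombination efficiency is read from averaged, control-corrected barcode counts per million at recombinant junctions, reported as log10(CPM+1).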"}
{"sequence": "TCGGATACTTGGGTTCTAACCTGTTGCAT (site TCGGATACTAA)", "recombinant barcode read abundance (log10)": 0.31}
{"sequence": "TCGGATACTTGGGTTCTAACCTGTTGCAT (site TCGGATACTAC)", "recombinant barcode read abundance (log10)": 0.0629}
{"sequence": "TCGGATACTTGGGTTCTAACCTGTTGCAT (site TCGGATACTAG)", "recombinant barcode read abundance (log10)": 0.173}
{"sequence": "TCGGATACTTGGGTTCTAACCTGTTGCAT (site TCGGATACTAT)", "recombinant barcode read abundance (log10)": 1.57}
{"sequence": "TCGGATACTTGGGTTCTAACCTGTTGCCT (site TCGGATACTAA)", "recombinant barcode read abundance (log10)": 0.119}
{"sequence": "TCGGATACTTGGGTTCTAACCTGTTGCCT (site TCGGATACTAC)", "recombinant barcode read abundance (log10)": 0.0175}
{"sequence": "TCGGATACTTGGGTTCTAACCTGTTGCCT (site TCGGATACTAG)", "recombinant barcode read abundance (log10)": 1.54}
{"sequence": "TCGGATACTTGGGTTCTAACCTGTTGCCT (site TCGGATACTAT)", "recombinant barcode read abundance (log10)": 0.0399}
{"sequence": "TCGGATACTTGGGTTCTAACCTGTTGCGT (site TCGGATACTAA)", "recombinant barcode read abundance (log10)": 0.0447}
{"sequence": "TCGGATACTTGGGTTCTAACCTGTTGCGT (site TCGGATACTAC)", "recombinant barcode read abundance (log10)": 2.05}
{"sequence": "TCGGATACTTGGGTTCTAACCTGTTGCGT (site TCGGATACTAG)", "recombinant barcode read abundance (log10)": 0.265}
{"sequence": "TCGGATACTTGGGTTCTAACCTGTTGCGT (site TCGGATACTAT)", "recombinant barcode read abundance (log10)": 1.41}
{"sequence": "TCGGATGCTTGGGTTCTAACCTGTTGCTT (site TCGAATGCTAG)", "recombinant barcode read abundance (log10)": 0.349}
{"sequence": "TCGGATGCTTGGGTTCTAACCTGTTGCTT (site TCGGATGCTAA)", "recombinant barcode read abundance (log10)": 0.901}
{"sequence": "TCGGGGACTTGGGTTCTAACCTGTTGCCG (site TCAGGGACTCT)", "recombinant barcode read abundance (log10)": 0.183}
{"sequence": "TCGGGGACTTGGGTTCTAACCTGTTGCCG (site TCGGGGACTCG)", "recombinant barcode read abundance (log10)": 0.601}
{"sequence": "TCGTACCCTTGGGTTCTAACCTGTTGCAA (site AAAATATCTAG)", "recombinant barcode read abundance (log10)": 0.083}
{"sequence": "TCGTACCCTTGGGTTCTAACCTGTTGCAA (site TCGTACCCTTT)", "recombinant barcode read abundance (log10)": 0.143}
{"sequence": "TCGTCTACTTGGGTTCTAACCTGTTGCTC (site ATCAACCCTTG)", "recombinant barcode read abundance (log10)": 0.117}
{"sequence": "TCGTCTACTTGGGTTCTAACCTGTTGCTC (site TCGTCTACTGA)", "recombinant barcode read abundance (log10)": 0.26}
{"sequence": "TCGTGCCCTTGGGTTCTAACCTGTTGCGT (site CCGTGCCCTAC)", "recombinant barcode read abundance (log10)": 0.0929}
{"sequence": "TCGTGCCCTTGGGTTCTAACCTGTTGCGT (site TCGTGCCCTAC)", "recombinant barcode read abundance (log10)": 0.14}
{"sequence": "TCGTTTCCTTGGGTTCTAACCTGTTGCAT (site AGCCAGGCTCC)", "recombinant barcode read abundance (log10)": 0.0113}
{"sequence": "TCGTTTCCTTGGGTTCTAACCTGTTGCAT (site TCGTTTCCTAT)", "recombinant barcode read abundance (log10)": 0.0275}
{"sequence": "TCTAAACCTTGGGTTCTAACCTGTTGCCT (site TCTAAACCTAG)", "recombinant barcode read abundance (log10)": 0.205}
{"sequence": "TCTAAACCTTGGGTTCTAACCTGTTGCCT (site TCTCAACCTAG)", "recombinant barcode read abundance (log10)": 0.0726}
{"sequence": "TCTAACACTTGGGTTCTAACCTGTTGCCT (site ACTAACACTAG)", "recombinant barcode read abundance (log10)": 0.0882}
{"sequence": "TCTAACACTTGGGTTCTAACCTGTTGCCT (site CCTAACACTAG)", "recombinant barcode read abundance (log10)": 0.0793}
{"sequence": "TCTAACACTTGGGTTCTAACCTGTTGCCT (site GCTAACACTAG)", "recombinant barcode read abundance (log10)": 0.0247}
{"sequence": "TCTAACACTTGGGTTCTAACCTGTTGCCT (site TCTAACACTAG)", "recombinant barcode read abundance (log10)": 0.206}
{"sequence": "TCTAAGGCTTGGGTTCTAACCTGTTGCCT (site TCAAAGGCTAG)", "recombinant barcode read abundance (log10)": 0.36}
{"sequence": "TCTAAGGCTTGGGTTCTAACCTGTTGCCT (site TCCAAGGCTAG)", "recombinant barcode read abundance (log10)": 0.108}
{"sequence": "TCTAAGGCTTGGGTTCTAACCTGTTGCCT (site TCGAAGGCTAG)", "recombinant barcode read abundance (log10)": 0.048}
{"sequence": "TCTAAGGCTTGGGTTCTAACCTGTTGCCT (site TCTAAGGCTAG)", "recombinant barcode read abundance (log10)": 0.043}
{"sequence": "TCTAAGTCTTGGGTTCTAACCTGTTGCCA (site TCTAAGTCTAG)", "recombinant barcode read abundance (log10)": 0.045}
{"sequence": "TCTAAGTCTTGGGTTCTAACCTGTTGCCA (site TCTAAGTCTCG)", "recombinant barcode read abundance (log10)": 0.144}
{"sequence": "TCTAAGTCTTGGGTTCTAACCTGTTGCCA (site TCTAAGTCTGG)", "recombinant barcode read abundance (log10)": 0.695}
{"sequence": "TCTAAGTCTTGGGTTCTAACCTGTTGCCA (site TCTAAGTCTTG)", "recombinant barcode read abundance (log10)": 0.0536}
{"sequence": "TCTACATCTTGGGTTCTAACCTGTTGCCT (site TCTACATCTAG)", "recombinant barcode read abundance (log10)": 0.0728}
{"sequence": "TCTACATCTTGGGTTCTAACCTGTTGCCT (site TCTACCTCTAG)", "recombinant barcode read abundance (log10)": 0.0374}
{"sequence": "TCTACATCTTGGGTTCTAACCTGTTGCCT (site TCTACGTCTAG)", "recombinant barcode read abundance (log10)": 0.0302}
{"sequence": "TCTACATCTTGGGTTCTAACCTGTTGCCT (site TCTACTTCTAG)", "recombinant barcode read abundance (log10)": 0.0355}
{"sequence": "TCTAGAACTTGGGTTCTAACCTGTTGCCT (site TCTAGAACTAG)", "recombinant barcode read abundance (log10)": 0.0829}
{"sequence": "TCTAGAACTTGGGTTCTAACCTGTTGCCT (site TCTAGACCTAG)", "recombinant barcode read abundance (log10)": 0.0178}
{"sequence": "TCTAGAACTTGGGTTCTAACCTGTTGCCT (site TCTAGAGCTAG)", "recombinant barcode read abundance (log10)": 0.0689}
{"sequence": "TCTAGAACTTGGGTTCTAACCTGTTGCCT (site TCTAGATCTAG)", "recombinant barcode read abundance (log10)": 0.0276}
{"sequence": "TCTAGACCTTGGGTTCTAACCTGTTGCCA (site TCTAGACCTTG)", "recombinant barcode read abundance (log10)": 0.0618}
{"sequence": "TCTAGACCTTGGGTTCTAACCTGTTGCCA (site TCTAGTCCTAG)", "recombinant barcode read abundance (log10)": 0.564}
{"sequence": "TCTATGTCTTGGGTTCTAACCTGTTGCCT (site TCTATGACTAG)", "recombinant barcode read abundance (log10)": 0.182}
{"sequence": "TCTATGTCTTGGGTTCTAACCTGTTGCCT (site TCTATGTCTAG)", "recombinant barcode read abundance (log10)": 0.107}
{"sequence": "TCTCAGGCTTGGGTTCTAACCTGTTGCAG (site TATCAGACTCT)", "recombinant barcode read abundance (log10)": 0.0549}
{"sequence": "TCTCAGGCTTGGGTTCTAACCTGTTGCAG (site TCTCAGGCTCT)", "recombinant barcode read abundance (log10)": 0.445}
{"sequence": "TCTCCTCCTTGGGTTCTAACCTGTTGCAT (site GAGGTCACTTA)", "recombinant barcode read abundance (log10)": 0.115}
{"sequence": "TCTCCTCCTTGGGTTCTAACCTGTTGCAT (site TCTCCTCCTAT)", "recombinant barcode read abundance (log10)": 0.679}
{"sequence": "TCTCGGTCTTGGGTTCTAACCTGTTGCCT (site TCACGGTCTAG)", "recombinant barcode read abundance (log10)": 0.71}
{"sequence": "TCTCGGTCTTGGGTTCTAACCTGTTGCCT (site TCTCGGTCTAG)", "recombinant barcode read abundance (log10)": 0.277}
{"sequence": "TCTCGTTCTTGGGTTCTAACCTGTTGCTA (site AGAGTAACTGT)", "recombinant barcode read abundance (log10)": 0.127}
{"sequence": "TCTCGTTCTTGGGTTCTAACCTGTTGCTA (site TCTCGTTCTTA)", "recombinant barcode read abundance (log10)": 0.102}
{"sequence": "TCTGATTCTTGGGTTCTAACCTGTTGCCG (site TCTGATTCTCG)", "recombinant barcode read abundance (log10)": 0.197}
{"sequence": "TCTGATTCTTGGGTTCTAACCTGTTGCCG (site TCTTATTCTAG)", "recombinant barcode read abundance (log10)": 0.133}
{"sequence": "TCTGATTCTTGGGTTCTAACCTGTTGCGT (site TCTAATTCTAC)", "recombinant barcode read abundance (log10)": 0.352}
{"sequence": "TCTGATTCTTGGGTTCTAACCTGTTGCGT (site TCTCATTCTAC)", "recombinant barcode read abundance (log10)": 0.00698}
{"sequence": "TCTGATTCTTGGGTTCTAACCTGTTGCGT (site TCTGATTCTAC)", "recombinant barcode read abundance (log10)": 1.4}
{"sequence": "TCTGATTCTTGGGTTCTAACCTGTTGCGT (site TCTTATTCTAC)", "recombinant barcode read abundance (log10)": 0.212}
{"sequence": "TCTGGCACTTGGGTTCTAACCTGTTGCCT (site TCCAGCACTAG)", "recombinant barcode read abundance (log10)": 0.205}
{"sequence": "TCTGGCACTTGGGTTCTAACCTGTTGCCT (site TCTGGCACTAG)", "recombinant barcode read abundance (log10)": 0.0487}
{"sequence": "TCTGGCCCTTGGGTTCTAACCTGTTGCCT (site CACCCTTCTGA)", "recombinant barcode read abundance (log10)": 0.124}
{"sequence": "TCTGGCCCTTGGGTTCTAACCTGTTGCCT (site TCTGGCCCTAG)", "recombinant barcode read abundance (log10)": 0.478}
{"sequence": "TCTGTATCTTGGGTTCTAACCTGTTGCCT (site ACTGTATCTAG)", "recombinant barcode read abundance (log10)": 0.28}
{"sequence": "TCTGTATCTTGGGTTCTAACCTGTTGCCT (site CCTGTATCTAG)", "recombinant barcode read abundance (log10)": 0.0921}
{"sequence": "TCTGTATCTTGGGTTCTAACCTGTTGCCT (site GCTGTATCTAG)", "recombinant barcode read abundance (log10)": 0.152}
{"sequence": "TCTGTATCTTGGGTTCTAACCTGTTGCCT (site TCTGTATCTAG)", "recombinant barcode read abundance (log10)": 0.614}
{"sequence": "TCTTAGACTTGGGTTCTAACCTGTTGCCG (site TCTTAGACTAG)", "recombinant barcode read abundance (log10)": 0.231}
{"sequence": "TCTTAGACTTGGGTTCTAACCTGTTGCCG (site TCTTAGACTCG)", "recombinant barcode read abundance (log10)": 0.232}
{"sequence": "TCTTAGACTTGGGTTCTAACCTGTTGCCT (site TCTTAGACTAG)", "recombinant barcode read abundance (log10)": 0.0224}
{"sequence": "TCTTAGACTTGGGTTCTAACCTGTTGCCT (site TCTTAGACTCG)", "recombinant barcode read abundance (log10)": 0.0132}
{"sequence": "TCTTAGACTTGGGTTCTAACCTGTTGCTT (site TCTTAGACTAA)", "recombinant barcode read abundance (log10)": 0.17}
{"sequence": "TCTTAGACTTGGGTTCTAACCTGTTGCTT (site TGTTGGACTAA)", "recombinant barcode read abundance (log10)": 0.0581}
{"sequence": "TCTTCCACTTGGGTTCTAACCTGTTGCCT (site ACTTCCACTAG)", "recombinant barcode read abundance (log10)": 0.0827}
{"sequence": "TCTTCCACTTGGGTTCTAACCTGTTGCCT (site CCTTCCACTAG)", "recombinant barcode read abundance (log10)": 0.0781}
{"sequence": "TCTTCCACTTGGGTTCTAACCTGTTGCCT (site GCTTCCACTAG)", "recombinant barcode read abundance (log10)": 0.0327}
{"sequence": "TCTTCCACTTGGGTTCTAACCTGTTGCCT (site TCTTCCACTAG)", "recombinant barcode read abundance (log10)": 0.385}
{"sequence": "TCTTCGACTTGGGTTCTAACCTGTTGCAG (site GGAAAAGCTAA)", "recombinant barcode read abundance (log10)": 0.0479}
{"sequence": "TCTTCGACTTGGGTTCTAACCTGTTGCAG (site TCTTCGACTCT)", "recombinant barcode read abundance (log10)": 0.111}
{"sequence": "TCTTTACCTTGGGTTCTAACCTGTTGCCT (site ACTTTACCTAG)", "recombinant barcode read abundance (log10)": 0.146}
{"sequence": "TCTTTACCTTGGGTTCTAACCTGTTGCCT (site CCTTTACCTAG)", "recombinant barcode read abundance (log10)": 0.182}
